The values below come from patent US20090082372A1, “Arylmethylene Substituted N-Acyl-Beta-Amino Alcohols” (priority 2007, published 2009).

The test concerns the target T1, human FSH receptor (Homo sapiens, UniProt P23945).
T1 construct: expressed in transfected cells; host or cells: CHO cells (hFSHR clone 16)
T1 sequence (P23945 18-695): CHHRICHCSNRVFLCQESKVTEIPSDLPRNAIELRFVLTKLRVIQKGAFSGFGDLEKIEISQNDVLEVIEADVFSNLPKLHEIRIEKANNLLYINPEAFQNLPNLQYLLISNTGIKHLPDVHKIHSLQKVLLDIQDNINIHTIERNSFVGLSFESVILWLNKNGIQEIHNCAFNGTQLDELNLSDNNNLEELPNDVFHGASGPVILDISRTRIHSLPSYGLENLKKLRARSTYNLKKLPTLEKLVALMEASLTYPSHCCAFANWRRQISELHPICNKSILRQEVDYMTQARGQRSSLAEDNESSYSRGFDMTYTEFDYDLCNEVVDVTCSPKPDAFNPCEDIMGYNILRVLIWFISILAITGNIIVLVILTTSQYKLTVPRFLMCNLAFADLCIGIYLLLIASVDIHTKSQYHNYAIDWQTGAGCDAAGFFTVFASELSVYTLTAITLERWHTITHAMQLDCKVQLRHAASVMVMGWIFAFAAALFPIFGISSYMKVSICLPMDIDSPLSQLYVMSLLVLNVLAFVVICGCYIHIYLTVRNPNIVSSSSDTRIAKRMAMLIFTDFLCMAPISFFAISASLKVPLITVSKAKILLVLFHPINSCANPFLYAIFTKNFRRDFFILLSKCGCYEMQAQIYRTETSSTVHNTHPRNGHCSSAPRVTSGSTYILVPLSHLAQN
Put plainly: HTRF assay for measuring cAMP in cells (FSH antagonism). It counts as cell-based. Conditions: hFSHR clone 16 cells (CHO cells stably transfected with the human FSH receptor); in the presence of 1e-9 mol/l hFSH; 37° C. for 2 h; read-out: IC50 (FSH-antagonistic effect in the HTRF assay). The method, then:
HTRF Assay for Measuring cAMP in Cells
The method is based on a competitive immunoassay between native cAMP, which has been produced by the cells, and cAMP which is labelled with XL665. The tracer binding was visualized by a monoclonal antibody, anti-cAMP labelled with cryptate [HTRF=homogeneous time-resolved fluorescence].
The specific signal is inversely proportional to the cAMP concentration of the samples employed. The 665 nm/620 nm fluorescence ratio was evaluated.
The following material was used: 96-well plates for the tissue culture, 96-well plates with black edge and black base (e.g. Fluotrac 600 from Greiner), 96-well plates for the substance dilutions of polypropylene and cAMP Femtomolar (4000 wells Kit, CIS Bio International #62AM1PEC).
The following reagents were used: BSA (bovine serum albumin) Fraction V protease-free, IBMX (3-isobutyl-1-methylxanthine), hFSH (human follicle stimulating hormone), Triton X-100 analytical grade, potassium fluoride analytical grade, G 418 (Geneticin) and Accutase.
Buffer 1 (washing and testing buffer) contained PBS, 1 mM CaCl2, 1 mM MgCl2, 0.2% glucose; 0.1% BSA, 1 mM IBMX. Buffer 2 (2× lysis buffer) contained 1% Triton X-100 in PBS (without CaCl2 and MgCl2). Buffer 3 (assay buffer) contained 50 mM potassium phosphate buffer (pH 7.0); 800 mM potassium fluoride; 0.2% BSA (always added fresh).
On day 1, the cells were seeded in 96-well plates (3×10^4 cells per well hFSHR clone 16 cells (CHO cells stably transfected with the human FSH receptor in 150 μl of medium).
The next day, test substance dilutions were made up. For this purpose, all the substances were diluted in ice-cold buffer 1 (with or without hFSH), and the substance dilutions were placed on ice until applied to the cells.
The cell supernatant was then aspirated off, and the cells were washed 2× with 200 μl of buffer 1. The cells were treated with 60 μl of the appropriate substance concentrations at 37° C. for 2 h. The cells were then lysed with 60 μl of buffer 2 (put onto the supernatant) (on a plate shaker at RT for 30 min).
The test conjugates (XL-665 and anti-cAMP cryptate) were diluted in buffer 3 in accordance with the manufacturers' information. The actual mixture for measurement was pipetted into a black 96-well plate (in each case 15 μl of the cell lysate diluted with 35 μl of buffer 1; firstly 25 μl of XL-665 conjugate were pipetted and, after 10 min, 25 μl of the anti-cAMP cryptate were added). This is followed by incubation at RT for 90 minutes. The measurement was carried out in a PheraStar (BMG).
Dose-effect curve (hFSH) for the human receptor: 1e-8, 3e-9, 1e-9, 3e-10, 1e-10, 3e-11, 1e-11, 3e-12 mol/l.
The test substances were employed in suitable dilutions in the absence (test for agonism) and in the presence of 1e-9 mol/l hFSH.
The values of the well ratio were averaged and then entered directly in SigmaPlot versus the concentrations. The maximum and minimum values were determined for each plate, and half the difference is to be regarded as IC50.

pIC50: −log10 of the molar value.

As a reminder, the pIC50 is the IC50 on a negative log10 scale, so that one unit is a factor of ten. On to `CNC(=O)c1ccc(C#Cc2ccc(OC(F)(F)F)c(C(=O)N[C@@H](CO)Cc3n[nH]c4cccc(F)c34)c2)cc1` (stereo in doubt) [Example 16, N-[2-hydroxy-1-(4-fluoro-1H-indazol-3-ylmethyl)-ethyl]-2-trifluoromethoxy-5-[(4-methylaminocarbonyl-phenyl)-ethynyl]-benzamide], for which the pIC50 was 5.05.

On to `CNC(=O)c1cc(F)cc(-c2ccc(OC(C)C)c(C(=O)NC(CO)Cc3c[nH]c4ncccc34)c2)c1` (centres unmarked) [Example 1, 5′-Fluoro-4-isopropoxy-biphenyl-3,3′-dicarboxylic acid 3-{[2-hydroxy-1-(1H-pyrrolo[2,3-b]pyridin-3-ylmethyl)-ethyl]-amide}3′-methylamide], for which the negative-log IC50 (pIC50) is 5.82.

On to `COc1ccccc1C#Cc1ccc(OC(C)C)c(C(=O)NC(CO)Cc2c[nH]c3ncccc23)c1` (centres unmarked) [Example 3, N-[1-Hydroxymethyl-2-(1H-pyrrolo[2,3-b]pyridin-3-yl)-ethyl]-2-isopropoxy-5-(2-methoxy-phenylethynyl)-benzamide], for which the pIC50 is 5.40.

For the compound `CNC(=O)c1ccc(-c2cc3c(c(C(=O)NC(CO)Cc4c[nH]c5ncccc45)c2)OC(C)(C)C=C3)cc1Cl` (centres unmarked) [Example 5, 6-(3-Chloro-4-methylcarbamoyl-phenyl)-2,2-dimethyl-2H-chromene-8-carboxylic acid [2-hydroxy-1-(1H-pyrrolo[2,3-b]pyridin-3-ylmethyl)-ethyl]-amide], the negative-log IC50 (pIC50) was 7.19.

Take `COc1ccc2nc(-c3cc(OC)c(OC)c(OC)c3)cc(C(=O)N[C@@H](CO)Cc3csc4ccccc34)c2c1` [Example 6, 6-Methoxy-2-(3,4,5-trimethoxy-phenyl)-quinoline-4-carboxylic acid ((R)-2-benzo[b]-thiophen-3-yl-1-hydroxy-methyl-ethyl)-amide]: the pIC50 is 5.22.

With `COc1ccc2nc(-c3cc(OC)c(OC)c(OC)c3)cc(C(=O)N[C@@H](CO)Cc3ccc4ccccc4c3)c2c1` [Example 9, 6-Methoxy-2-(3,4,5-trimethoxy-phenyl)-quinoline-4-carboxylic acid ((R)-2-hydroxy-1-naphthalen-2-ylmethyl-ethyl)-amide], the negative logarithm of the IC50 (pIC50) was 5.10.

Turning to `COc1ccc2nc(-c3cc(OC)c(OC)c(OC)c3)cc(C(=O)NC(CO)Cc3ccc4ccccc4c3)c2c1` (centres unmarked) [Example 12, 6-Methoxy-2-(3,4,5-trimethoxy-phenyl)-quinoline-4-carboxylic acid (2-hydroxy-1-naphthalen-2-ylmethyl-ethyl)-amide], the pIC50 is 5.00.

Regarding `CNC(=O)c1ccc(-c2ccc(OC(F)(F)F)c(C(=O)N[C@@H](CO)Cc3n[nH]c4c(F)cccc34)c2)cc1Cl` [Example 14, 3′-Chloro-4-trifluoromethoxy-biphenyl-3,4′-dicarboxylic acid 3-{[2-hydroxy-1-(7-fluoro-1H-indazol-3-ylmethyl)-ethyl]-amide}4′-methylamide], the pIC50 is 5.30.

On to `COc1ccc2nc(-c3ccc(OC)c(F)c3)nc(C(=O)NC(CO)Cc3c[nH]c4cccnc34)c2c1` (centres unmarked) [Example 21, 2-(3-Fluoro-4-methoxy-phenyl)-6-methoxy-quinazoline-4-carboxylic acid [2-hydroxy-1-(1H-pyrrolo[3,2-b]pyridin-3-ylmethyl)-ethyl]-amide], for which the negative logarithm of the IC50 (pIC50) is 5.30.

`COc1ccccc1C#Cc1ccc(OC(C)C)c(C(=O)NC(CO)Cc2c[nH]c3cccnc23)c1` (centres unmarked) [Example 22, N-[1-Hydroxymethyl-2-(1H-pyrrolo[3,2-b]pyridin-3-yl)-ethyl]-2-isopropoxy-5-(2-methoxy-phenylethynyl)-benzamide]: the pIC50 was 6.70.

In the case of `CNC(=O)c1cc(F)cc(-c2ccc(OC(C)C)c(C(=O)NC(CO)Cc3cc4ncccc4[nH]3)c2)c1` (centres unmarked) [Example 24, 5′-Fluoro-4-isopropoxy-biphenyl-3,3′-dicarboxylic acid 3-{[1-hydroxymethyl-2-(1H-pyrrolo[3,2-b]pyridin-2-yl)-ethyl]-amide}3′-methyl amide], the pIC50 was 7.15.

As to `COc1ccc(-c2cc3c(c(C(=O)NC(CO)Cc4c[nH]c5cccnc45)c2)OCCCC3)cc1OC` (centres unmarked) [Example 26, 7-(3,4-Dimethoxy-phenyl)-2,3,4,5-tetrahydro-benzo[b]oxepine-9-carboxylic acid [1-hydroxymethyl-2-(1H-pyrrolo[3,2-b]pyridin-3-yl)-ethyl]-amide], the pIC50 is 6.00.

In the case of `CNC(=O)c1ccc(-c2ccc(OC(C)C)c(C(=O)NC(CO)Cc3c[nH]c4cnccc34)c2)cc1Cl` (centres unmarked) [Example 39, 3′-Chloro-4-isopropoxy-biphenyl-3,4′-dicarboxylic acid 3-{[2-hydroxy-1-(1H-pyrrolo[2,3-c]pyridin-3-ylmethyl)-ethyl]-amide}4′-methylamide], the negative logarithm of the IC50 (pIC50) was 5.19.

With `COc1ccccc1C#Cc1ccc(OC(C)C)c(C(=O)NC(CO)Cc2c[nH]c3cnccc23)c1` (centres unmarked) [Example 42, N-[2-Hydroxy-1-(1H-pyrrolo[2,3-c]pyridin-3-ylmethyl)-ethyl]-2-isopropoxy-5-(2-methoxy-phenylethynyl)-benzamide], the pIC50 is 5.30.
